The values that follow come from patent US20170000133A1, “BENZOXABOROLE FUNGICIDES” (SYNGENTA PARTICIPATIONS AG, priority 2013, published 2017).

The subject of one data set is Pythium ultimum. In words: Pythium ultimum / liquid culture (seedling damping off). Format: cell-based. The following applies: Globisporangium ultimum; 200 ppm; potato dextrose broth, 24° C., 2-3 days after application; read-out: disease control (inhibition of growth determined photometrically).
Data set [1] concerns Mycosphaerella graminicola (Septoria tritici). As to the kind of experiment: Mycosphaerella graminicola (Septoria tritici) / liquid culture (Septoria blotch). Format: cell-based. The conditions noted are these: Zymoseptoria tritici, PDB potato dextrose broth, 24° C., 4-5 days after application, read-out: disease control (inhibition of growth determined photometrically). The gist of the method: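 Conidia from cryostorage were suspended in potato dextrose broth and added to test compound in DMSO at 200 ppm in microtiter wells. Plates were incubated at 24° C and growth inhibition measured photometrically 4-5 days after application.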

The test system of data set [2] is Thanatephorus cucumeris (Rhizoctonia solani). In words: Thanatephorus cucumeris (Rhizoctonia solani) / liquid culture (foot rot, damping-off). Format: cell-based. The conditions noted are these: PDB potato dextrose broth, 24° C., 3-4 days after application, read-out: disease control (inhibition of growth determined photometrically). The method in brief: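 Mycelial fragments from fresh liquid culture were suspended in potato dextrose broth and added to compound in DMSO at 200 ppm. After 3-4 days at 24 °C, growth inhibition was measured photometrically.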

Data set [3] relates to Glomerella lagenarium (Colletotrichum lagenarium). In words: Glomerella lagenarium (Colletotrichum lagenarium) / liquid culture (anthracnose). The data set is classed as cell-based. The conditions noted are these: Colletotrichum orbiculare, PDB potato dextrose broth, 24° C., 3-4 days after application, read-out: disease control (inhibition of growth measured photometrically). The method in brief:
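Conidia of G. lagenarium from cryogenic storage were suspended in potato dextrose broth and added to test compound in DMSO at 200 ppm. Plates were incubated at 24° C, and growth inhibition was read photometrically 3-4 days after application.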

The subject of data set [4] is Monographella nivalis (Microdochium nivale). In words: Monographella nivalis (Microdochium nivale) / liquid culture (foot rot cereals). The following applies: PDB potato dextrose broth, 24° C., 4-5 days after application, read-out: disease control (inhibition of growth determined photometrically). The data set is classed as cell-based.
The test system of the next data set is Fusarium culmorum. As to the kind of experiment: microbe, parasite or virus in culture. Format: cell-based. The following applies: read-out: disease control (inhibition of growth determined visually).
For data set [5], the system named is Mycosphaerella arachidis (Cercospora arachidicola). In words: Mycosphaerella arachidis (Cercospora arachidicola) / liquid culture (early leaf spot). The data set is classed as cell-based. The conditions noted are these: PDB potato dextrose broth, 24° C., 4-5 days after application, read-out: disease control (inhibition of growth determined photometrically). The method in brief: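 Conidia from cryogenic storage mixed into potato dextrose broth and added to compound at 200 ppm in DMSO. Incubation at 24° C.; growth inhibition read photometrically 4-5 days after application.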

Another data set relates to Gaeumannomyces graminis. As to the kind of experiment: Gaeumannomyces graminis / liquid culture (take-all of cereals). The conditions noted are these: PDB potato dextrose broth, 24° C., 4-5 days after application, read-out: disease control (inhibition of growth determined photometrically). Format: cell-based. The method in brief: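 Cryo-stored mycelial fragments in potato dextrose broth exposed to compound in DMSO at 200 ppm. Incubated at 24 °C; growth inhibition read photometrically 4–5 days after application.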

Another data set relates to Plasmopara viticola. As to the kind of experiment: whole plant or invertebrate. The data set is classed as in vivo. The following applies: foliar, read-out: disease control.

Turning to `CON(C)C(=O)c1cc2c(cc1F)COB2O` [Compound 51], the melting point was in the range of 144 to 146 °C. Besides, the inhibition at 200 ppm in the data set with Pythium ultimum was not below 80%.

The molecule `COC(CNC(=O)c1cc2c(cc1F)COB2O)OC` [Compound 53] had a melting point of 150 to 152 °C. Moreover, the inhibition at 200 ppm in the data set with Pythium ultimum is not below 80%.

`O=C(OCC(Cl)(Cl)Cl)c1cc2c(cc1Cl)COB2O` [Compound 197]: the inhibition at 200 ppm (in data set [1]; in data set [2]; in the data set with Pythium ultimum; in data set [3]; in data set [4]; with Fusarium culmorum) was not below 80% throughout. Further, the inhibition at 200 ppm in data set [5] was not below 80%.

In the case of `C=CCCOC(=O)c1cc2c(cc1Cl)COB2O` [Compound 203], the inhibition at 200 ppm (in data set [1]; in data set [2]; in the data set on Pythium ultimum; in data set [3]; in data set [4]; in the data set on Gaeumannomyces graminis) was not below 80% in each case. Further, the inhibition at 200 ppm (in the data set on Fusarium culmorum; in [5]) was not below 80% throughout.

For `O=C(OC1CCC1)c1cc2c(cc1Cl)COB2O` [Compound 205], the inhibition at 200 ppm (in data set [1]; in data set [2]; with Pythium ultimum; in data set [3]; in data set [4]; with Gaeumannomyces graminis) was not below 80% in each case. The inhibition at 200 ppm (in the data set on Fusarium culmorum; in [5]) was not below 80% each time.

Consider `O=C(OCCOc1ccc(Cl)cc1)c1cc2c(cc1Cl)COB2O` [Compound 226], for which the inhibition at 200 ppm (in data set [1]; in [2]; with Pythium ultimum; in data set [3]; in data set [4]; in the data set on Gaeumannomyces graminis) was not below 80% in each case. For the same molecule, the inhibition at 200 ppm (in the data set on Fusarium culmorum; in data set [5]) was not below 80% in each case. Further, the pest or weed control at 200 ppm in the data set on Plasmopara viticola is not below 80%.

`C#CCCOC(=O)c1cc2c(cc1Cl)COB2O` [Compound 229]: the inhibition at 200 ppm (in data set [1]; in data set [2]; in the data set on Pythium ultimum; in data set [3]; in data set [4]; in the data set on Gaeumannomyces graminis) was not below 80% each time. Also, the inhibition at 200 ppm (in the data set with Fusarium culmorum; in data set [5]) was not below 80% each time.

In turn, `COC(CNC(=O)c1ccc2c(c1)B(O)OC2)OC` [Compound 242] registered a melting point of 148 to 150 °C. In addition, the inhibition at 200 ppm in the data set on Pythium ultimum is not below 80%.

For `O=C(OCCO)c1cc2c(cc1F)COB2O` [Compound 243], the melting point is 274 to 276 °C. In the data set with Pythium ultimum, the inhibition at 200 ppm was not below 80%.

`O=C(OCCO)c1ccc2c(c1)B(O)OC2` [Compound 244] had a melting point of 122 to 124 °C. Further, the inhibition at 200 ppm with Pythium ultimum was not below 80%. Further, the inhibition at 200 ppm in data set [4] is not below 80%.

Take `C=CCCOC(=O)c1ccc2c(c1)B(O)OC2` [Compound 329]: the inhibition at 200 ppm (in data set [1]; in data set [2]; with Pythium ultimum; in [4]; in the data set on Gaeumannomyces graminis; in the data set with Fusarium culmorum) was not below 80% in each case. In data set [5], the inhibition at 200 ppm was not below 80%. In addition, the pest or weed control at 200 ppm in the data set on Plasmopara viticola was not below 80%.

Take `O=C(OC1CCC1)c1ccc2c(c1)B(O)OC2` [Compound 332]: the inhibition at 200 ppm (in [1]; in [2]; in the data set on Pythium ultimum; in data set [4]; with Fusarium culmorum; in [5]) was not below 80% in each case. The pest or weed control at 200 ppm with Plasmopara viticola was not below 80%.

As for `C#CCCCOC(=O)c1ccc2c(c1)B(O)OC2` [Compound 334], the inhibition at 200 ppm (in data set [1]; in data set [2]; in the data set on Pythium ultimum; in data set [3]; in [4]; with Gaeumannomyces graminis) was not below 80% in each case. For the same molecule, the inhibition at 200 ppm (with Fusarium culmorum; in data set [5]) was not below 80% each time. For the same molecule, the pest or weed control at 200 ppm with Plasmopara viticola was not below 80%.

With `O=C(OCc1ccco1)c1ccc2c(c1)B(O)OC2` [Compound 336], the inhibition at 200 ppm (in [1]; in data set [2]; in the data set on Pythium ultimum; in data set [3]; in [4]; in the data set on Gaeumannomyces graminis) was not below 80% each time. Also, the inhibition at 200 ppm (in the data set on Fusarium culmorum; in [5]) was not below 80% in each case. Moreover, the pest or weed control at 200 ppm in the data set on Plasmopara viticola is not below 80%.

For the molecule `COc1ccc(OCCOC(=O)c2ccc3c(c2)B(O)OC3)cc1` [Compound 344], the inhibition at 200 ppm (in data set [1]; in [2]; in the data set on Pythium ultimum; in [3]; in data set [4]; in the data set on Gaeumannomyces graminis) was not below 80% each time. In addition, the inhibition at 200 ppm (in the data set on Fusarium culmorum; in data set [5]) was not below 80% each time. Moreover, the pest or weed control at 200 ppm with Plasmopara viticola was not below 80%.

Take `O=C(OC1CSC1)c1ccc2c(c1)B(O)OC2` [Compound 362]: the inhibition at 200 ppm (in [1]; in data set [2]; in the data set on Pythium ultimum; in data set [4]; in the data set with Gaeumannomyces graminis; in the data set on Fusarium culmorum) was not below 80% throughout. Further, in data set [5], the inhibition at 200 ppm was not below 80%.

For the molecule `C#CCOC(=O)c1cc2c(cc1F)COB2O` [Compound 381], the inhibition at 200 ppm (in data set [1]; in [2]; in the data set on Pythium ultimum; in data set [3]; in data set [4]; in the data set with Gaeumannomyces graminis) was not below 80% throughout. For the same molecule, the inhibition at 200 ppm in the data set with Fusarium culmorum was not below 80%. In the data set with Plasmopara viticola, the pest or weed control at 200 ppm is not below 80%.

Regarding `O=C(OCC1CCC1)c1cc2c(cc1F)COB2O` [Compound 413], the inhibition at 200 ppm (in data set [1]; in [2]; in the data set on Pythium ultimum; in data set [4]; in the data set with Gaeumannomyces graminis; with Fusarium culmorum) was not below 80% each time.

In the case of `C[Si](C)(C)C#CCOC(=O)c1cc2c(cc1F)COB2O` [Compound 430], the inhibition at 200 ppm (in data set [1]; in data set [2]; in the data set with Pythium ultimum; in the data set on Gaeumannomyces graminis; in the data set on Fusarium culmorum; in data set [5]) was not below 80% each time. The pest or weed control at 200 ppm in the data set on Plasmopara viticola was not below 80%.

As for `COC(CNC(=O)c1cc2c(cc1Cl)COB2O)OC` [Compound 435], the melting point fell in the range of 150 to 152 °C.

`NC(=O)c1cc2c(cc1F)COB2O` [Compound 436] had a melting point of 216 to 218 °C. Also, in the data set with Pythium ultimum, the inhibition at 200 ppm was not below 80%.

`O=C(OCCO)c1cc2c(cc1Cl)COB2O` [Compound 440] returned a melting point of 270 to 272 °C. For the same molecule, the inhibition at 200 ppm with Pythium ultimum was not below 80%.

Take `COC(COC(=O)c1ccc2c(c1)B(O)OC2)OC` [Compound 443]: the melting point fell in the range of 110 to 112 °C. For the same molecule, the inhibition at 200 ppm in the data set with Pythium ultimum was not below 80%.

`COC(COC(=O)c1cc2c(cc1F)COB2O)OC` [Compound 444] returned a melting point of 109 to 111 °C. The inhibition at 200 ppm with Pythium ultimum is not below 80%.

Molecule `CC(=O)C(C)OC(=O)c1cc2c(cc1F)COB2O` (centres unmarked) [Compound 445] showed a melting point of 108 to 110 °C. Further, the inhibition at 200 ppm in the data set with Pythium ultimum was not below 80%.

`CC(=O)C(C)OC(=O)c1ccc2c(c1)B(O)OC2` (centres unmarked) [Compound 447] gave a melting point of 110 to 112 °C. For the same molecule, the inhibition at 200 ppm in the data set with Pythium ultimum is not below 80%. Moreover, in [4], the inhibition at 200 ppm is not below 80%. The inhibition at 200 ppm with Gaeumannomyces graminis was not below 80%.

Molecule `CC(=O)COC(=O)c1cc2c(cc1F)COB2O` [Compound 448] came in with a melting point of 122 to 124 °C. Besides, the inhibition at 200 ppm with Pythium ultimum was not below 80%. The inhibition at 200 ppm in data set [4] is not below 80%.

As to `CC(=O)COC(=O)c1cc2c(cc1Cl)COB2O` [Compound 450], the melting point is 134 to 136 °C. Also, in the data set on Pythium ultimum, the inhibition at 200 ppm is not below 80%. Also, the inhibition at 200 ppm in the data set with Gaeumannomyces graminis is not below 80%. The pest or weed control at 200 ppm in the data set on Plasmopara viticola was not below 80%.

A word on the inhibition: it is the drop in the measured response relative to a control, in per cent. One may read the melting point as the temperature of the solid-liquid transition.
